This is an account of results in patent publication US5858670A, “Bio-oligomer libraries and a method of use thereof” (The Arizona Board of Regents, priority 1996, dated 1999).

Where two headings read alike, the source gives them in different places. Where no end group is shown, it is not given here. [ ]: non-standard residue; d: D form. Ahx = NCCCCCC(=O)O; βAla = NCCC(=O)O

For one data set, the target named is T1, streptavidin (Streptomyces avidinii, UniProt P22629).
T1 construct: purchased Pierce, Rockford, Ill
The data set is described as follows: biotin inhibition of LHPQF-resin staining by streptavidin-alkaline phosphatase. Format: binding. How it is done: FIG. 8. […] A: 100 nM; B: 10 nM; C: 1 nM; and D: 0.1 nM biotin. Blank beads (β-Ala-aminocaproic acid-resin) were mixed 1:1 with the LHPQFD-resin prior to incubating with streptavidin-alkaline phosphatase to serve as an internal negative control.
The LHPQF-resin was then mixed with streptavidin-alkaline phosphatase in the presence of varying concentration of biotin. […] The inhibition study establishes that the HPQ consensus sequence binds to the biotin-binding site of streptavidin.

The nature of data set [1]: UV/VIS irradiation of ONb-linked peptide resins, HPLC of released product. Format: physicochemical. The settings on record: in water. How it is done:
Each peptide was irradiated for 1 and 3 hours with ultraviolet (UV) and visible (VIS) light in 0.3 ml of water or 3/7 mixture of chloroethanol:dichloromethane. A total of 16+16 experiments were run and assayed.
After exposure the supernatant was filtered off, lyophilized and re-dissolved to equal volumes of MeOH (0.3 ml). The products were analyzed on the HPLC.

A further data set deals with anti-v-mos MAb. The experiment in a line: solution phase binding studies with [3H]Ac-v-mos radioligand. Further details: species or system mouse. As to conditions: competition with 20 nM [3H]Ac-v-mos for 10 μg/ml anti-v-mos MAb. The method, then: Peptide ligand affinity for anti-v-mos mAb was measured by solution phase binding studies using [^3 H]acetyl v-mos peptide ([^3 H]Ac-v-mos) as the radioligand. The radioligand was prepared by N-terminal acetylation of v-mos peptide, prior to the deprotection of the side chains, with an equimolar amount of [^3 H]sodium acetate (specific activity=2.52 Ci/mmole, New England Nuclear, Boston, Mass.). […] Specific binding was defined as the difference between [^3 H]Ac-v-mos binding in-the presence (nonspecific) and absence (total) of 100 μM unlabelled v-mos peptide for each [^3 H]Ac-v-mos concentration. Bound radioligand was separated by centrifugation using a 10-fold excess (binding capacity relative to immunoglobulin used) of Protein-G Sepharose (Pharmacia) to precipitate the antibody. […] Over 50% of the total binding was specific in the inhibition studies. Saturation and inhibition binding constants were determined for single site binding by nonlinear regression analysis as previously described (Knapp and Yamamura, 1990, Life Sci. 46:1457-1463).

In data set [2] the test system is anti-v-mos monoclonal antibody. The data set is described as follows: bead staining with anti-v-mos monoclonal antibody and alkaline phosphatase secondary antibody (Example 8). As to conditions: 1 μg/ml MAb, secondary antibody 1:2000, BCIP/NBT, 15 minutes. Format: binding, mouse. How it is done: The long v-mos beads were mixed with a thousand fold excess of the short v-mos beads. Two milliliters of the purified anti-v-mos monoclonal antibody (1 μg/ml) in PBS with 0.1% Tween 20 was added to the mixture of long and short v-mos beads and incubated at room temperature for one hour with gentle mixing. […]. The beads were then washed on a small polypropylene disposable column (obtained from Isolab) where the beads were retained by the frit. The beads were then mixed with 2 ml of a secondary antibody at 1:2000 dilution for one hour. After washing, the beads were poured into a polystyrene petri dish and allowed to settle. The supernatant was removed and a solution of 5-bromo-4-chloro-3-indoyl phosphate and nitro blue tetrazolium was gently added as a substrate.
This made it possible immediately to detect a single dark bead within a lawn of thousands of colorless beads. The distinction between the beads is illustrated in FIGS. 2 to 4, all of which are photographs at 40× magnification of the beads distributed in petri dishes. […] Accordingly, the beads that contained the peptide sequence of interest were readily distinguished and isolated from the other beads in the library.

The next data set relates to anti-v-mos. The settings on record: cited from earlier work.
For data set [3], the system named is anti-v-mos monoclonal antibody. The data set is described as follows: PAM resin bead staining with anti-v-mos monoclonal antibody and labelled secondary antibody (Example 9). As to conditions: 1 ug/ml MAb, secondary antibody 1:100, ABTS with H2O2, 15 minutes. Format: binding, mouse. How it is done:
Approximately 0.1 mg of the PAM resin/v-mos peptide described above was mixed with a hundred-fold excess of N^β -Fmoc-alanine PAM resin beads obtained from Bachem, Inc. Two ml of the purified monoclonal antibody (1 ug/ml) in PBS plus 0.1% Tween 20 were added to the peptide/support mixture and incubated at room temperature for 45 minutes with gentle mixing.
The beads were washed on a small polypropylene disposable column (obtained from Isolab) which retained the beads on a frit. The beads were then mixed with 2 ml of […] secondary antibody (1:100 dilution) for one hour. After washing, the beads were spread on a piece of glass filter and soaked in 2,2'-azinobis (3-ethylbenzthiozoline sulfonic acid) (ABTS) substrate with H2 O2. […] A small surrounding lighter green halo formed on the glass filter. […] The v-mos beads were readily distinguished.

Data set [4] concerns anti-β-endorphin MAb. The data set is described as follows: library bead screening with biotinylated anti-β-endorphin MAb and streptavidin-alkaline phosphatase. Format: binding. The settings on record: recycled pentapeptide library, 16 hours with biotinylated MAb. The method, then: Prior to using the same random peptide library to screen with anti-β-endorphin MAb, all the blue beads that had stained for streptavidin-alkaline phosphatase alone were removed. The remaining beads were then treated with 8M guanidine hydrochloride to remove any bound protein. This recycled library was then mixed with biotinylated anti-β-endorphin MAb (anti-β-endorphin, clone 3-E7, was obtained commercially from Boehringer Mannheim, Indianapolis, Ind.) for 16 hours. After extensive washing, a secondary step with streptavidin-alkaline phosphatase was used to trigger the staining reaction for the ELISA. […] Peptide analogues with various carboxyl terminus of these ligand leads were synthesized and their affinity (Ki) was determined using [^3 H]Leu-enkaphalin (New England Nuclear, Boston, Mass.) as the labelled ligand and the unlabelled peptides as the competing ligand (anti-β-endorphin assay, Section 10.1.2, supra).

In data set [5] the target is anti-β-endorphin MAb. The data set is described as follows: anti-β-endorphin binding assay: peptide inhibition of [3H][Leu]enkephalin binding, solution phase. As to conditions: for Ki: competition with 5.0 nM [3H][Leu]enkephalin.
Description: Peptide ligand binding affinities for the anti-β-endorphin monoclonal antibody were determined in solution phase. […] Specific binding was defined as the difference between binding measured in the presence or absence of 1.0 μM unlabelled [Leu]enkephalin. Bound radioligand was precipitated by the addition of a 10-fold excess of Protein-G Sepharose (Pharmacia) followed by an overnight incubation (23°-24° C.). The Protein-G Sepharose was collected by centrifugation (13,000×g for 5 minutes) and the pellets suspended in 250 μl 5% (v/v) acetic acid before transfer to vials for liquid scintillation counting. […] Peptide ligand inhibition curves were produced for eight concentrations of the peptide over a 400-fold range. Binding data for saturation and inhibition studies were analyzed by weighted-nonlinear regression methods using appropriate one site models reported by Knapp et al. (1990, J. Pharmacol. Exp. Ther. 255:1278-1282). Ki values for inhibition binding constants were calculated using the method of Cheng and Prusoff (1973, Biochem. Pharmacol. 22:3099-3102). Each Ki value was calculated from three to four independent determinations.
Setting [6] is: peptide with carboxyl terminus --NH2, read-out: Ki, Carboxyl Terminus --NH2.
The mark [7] stands for this setting: peptide with carboxyl terminus --OH, read-out: Ki, Carboxyl Terminus --OH.

T1 sequence (P22629 25-183, species assumed): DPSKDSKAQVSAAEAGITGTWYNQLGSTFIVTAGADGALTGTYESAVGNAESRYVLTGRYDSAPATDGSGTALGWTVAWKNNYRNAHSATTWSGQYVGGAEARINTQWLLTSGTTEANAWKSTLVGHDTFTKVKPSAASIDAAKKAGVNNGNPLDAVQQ

In the case of `O=C(O)CCCC[C@@H]1SC[C@@H]2NC(=O)N[C@@H]21` [Biotin, biotin], the “inhibition of staining of LHPQF-resin” value against streptavidin (biotin 0.1 nM) is recorded as “no effect on the staining”; at streptavidin (biotin 1.0 nM), “partially inhibited the staining”; against streptavidin (biotin 10 nM), “partially inhibited the staining”; on streptavidin (biotin 100 nM) it was “completely blocked staining”. For the same compound, on streptavidin (biotin 100, 10, 1 and 0.1 nM (figure legend)), the “effect on staining of LHPQF-resin mimotope beads” value is “concentration-dependent inhibitory effect”.

“Fmoc-Trp-Tyr (OBu^t)-Phe-βNb-gAla-ACA-EDA-PepSyn K [peptide i]”: the cleavage product entry in data set [1] is “cleaved to a single product”.

Take GFGSVY-NH2: the inhibition constant (Ki) (in general, the dissociation constant of the complex between target and ligand, obtained from inhibition or displacement) at anti-v-mos MAb was in the range of 246 to 337 µM.

On to GFGSVY-OH, for which, at anti-v-mos MAb, the Ki is > 1000 µM.

For the compound GFGSVY[βAla]-NH2, on anti-v-mos MAb, the Ki is 409 to 442 µM.

In turn, GFGSVY[βAla]-OH had a Ki at anti-v-mos MAb of 529 to 770 µM.

At anti-v-mos MAb, GRRAYE-NH2 showed an inhibitory constant (Ki) of 24.7 ± 7 µM.

In turn, GRRAYE-OH had an inhibition constant Ki on anti-v-mos MAb of 6.79 ± 2.31 µM.

As for GRRAYE[βAla]-NH2, on anti-v-mos MAb, the Ki lay in the range of 9.02 to 20.4 µM.

GRRAYE[βAla]-OH had a Ki on anti-v-mos MAb of 15.1 ± 0.5 µM.

As for GRREGP[βAla]-NH2, affinity at anti-v-mos MAb was put at a Ki of 26.9 ± 6.2 µM.

Take GRRGME-OH: on anti-v-mos MAb, the Ki was > 100 µM.

In turn, GRRGME[βAla]-NH2 gave a Ki at anti-v-mos MAb of 24 ± 8.4 µM.

Turning to GRRPYG-OH, the Ki on anti-v-mos MAb was > 1000 µM.

On anti-v-mos MAb, GRRPYG[βAla]-NH2 returned an inhibition constant Ki of 20.5 ± 4.5 µM.

As for “GSVYKA [short v-mos beads, residue 106-111 of the v-mos gene product on polyacrylamide bead; negative control, reference compound]”, the “bead colour after staining” value in data set [2] is on record as “remained colorless”.

On to GSVYKA [short v-mos peptide], for which the “affinity of the antibody” value in the data set with anti-v-mos was “negligible affinity”.

As to “Gly-Phe-Gly-Ser-Val-Tyr-aminocaproic acid-β-Ala-resin (GFGSVY-{Ahx-βAla-PAM resin}) [PAM resin/v-mos peptide beads]”, in data set [3], the “bead colour after staining” value is given as “turned dark green”.

Consider “LGSGGFGSVYKA [residues 100 to 111 of the v-mos oncogene product, reference compound]”, for which the inhibition constant (Ki) at anti-v-mos MAb amounted to 3.2 ± 0.4 µM.

Take “Leu-Gly-Ser-Gly-Gly-Phe-Ser-Val-Tyr-Lys-Ala-aminocaproic acid-ethylenediamine resin [long v-mos beads]”: the “bead colour after staining” value in data set [2] is on record as “turned purple”.

On to YGALQ, for which the “identified as ligand bead in the screening” value (“identified as ligand bead” below) in the data set with anti-β-endorphin MAb [4] is given as “identified in this screening”.

On to YGGFA, for which the “identified as ligand bead” value in the data set on anti-β-endorphin MAb [4] is given as “identified in this screening”. The values for the Ki on anti-β-endorphin MAb [5] (setting [6]) and at anti-β-endorphin MAb [5] (setting [7]) were 0.072 ± 0.0164 µM and 0.0329 ± 0.002 µM, respectively.

Take YGGFQ: the “identified as ligand bead” value in the data set with anti-β-endorphin MAb [4] is given as “identified in this screening”. In addition, the Ki at anti-β-endorphin MAb [5] (setting [6]) is 0.0401 ± 0.006 µM; on anti-β-endorphin MAb [5] (setting [7]), 0.015 ± 0.0017 µM.

Take YGGFT: the “identified as ligand bead” value in the data set on anti-β-endorphin MAb [4] is “identified in this screening”. Moreover, the Ki turned out to be 0.0652 ± 0.0168 µM at anti-β-endorphin MAb [5] (setting [6]) and 0.0369 ± 0.0077 µM on anti-β-endorphin MAb [5] (setting [7]).

Take YGGLQ: the Ki worked out at 2.91 ± 0.695 µM at anti-β-endorphin MAb [5] (setting [6]) and 1.98 ± 0.303 µM on anti-β-endorphin MAb [5] (setting [7]).

For the compound YGGLS, the “identified as ligand bead” value in the data set on anti-β-endorphin MAb [4] is listed as “identified in this screening”. For the same compound, the figures for the Ki at anti-β-endorphin MAb [5] (setting [6]) and on anti-β-endorphin MAb [5] (setting [7]) were 0.991 ± 0.052 µM and 0.726 ± 0.134 µM, respectively.

For YGGMV, the “identified as ligand bead” value with anti-β-endorphin MAb [4] is given as “identified in this screening”. The Ki at anti-β-endorphin MAb [5] (setting [6]) was 14 ± 1.11 µM; on anti-β-endorphin MAb [5] (setting [7]), 8.78 ± 1.5 µM.

With “[^3 H][Leu]enkephalin [reference compound]”, on anti-β-endorphin MAb [5] (saturation analysis, n=3, 5 radioligand concentrations 1.87-30 nM), the affinity, expressed as Kd, was 0.00979 ± 0.00463 µM.
